Source: patent US20240174681A1, “SALT AND CRYSTALLINE FORMS OF FGFR4 INHIBITOR AND USES THEREOF” (BETTA PHARMACEUTICALS CO., LTD, priority 2020, published 2024)
“Also recorded” adds a separate entry of the source. Like-named read-outs stand apart in the source and are kept apart here.

What was measured:
[1] = Stability determination of crystal forms (HPLC); assay type: physicochemical; settings: for stability (in words): HPLC detection results
Description: Samples and experimental preparation: The amorphous form of the compound represented by Formula I and the crystal form A, maleate crystal form 1, maleate crystal form 2, phosphate crystal form 1 and adipate crystal form 1 of the compound represented by Formula I in appropriate amounts were tested for stability. Samples were taken at different time points separately for HPLC. The packages were polyester/aluminum/polyamide/polyethylene pharmaceutical composite films and bags.

[2] = Hygroscopicity determination by dynamic vapor sorption (DVS); assay type: physicochemical; settings: for Weight Gain for Vapor Absorption: DVS, 0% RH to 80% RH; for hygroscopicity (in words): under the test conditions
Description: The hygroscopicity of samples (which are multiple crystal forms shown in Table 14) was determined by a dynamic vapor sorption (DVS) meter. The samples were detected for changes of weight gains due to vapor absorption within the range of 0% RH (relative humidity) to 80% RH.

[3] = system: human liver cancer cells Hep3B xenograft; assay: Hep3B xenograft tumor model; assay type: in vivo
Description: BALB/c nu/nu female mice were inoculated with 5×10^6 human liver cancer cells Hep3B subcutaneously in the right anterior scapula, where a volume ratio of a cell suspension to matrigel was 1:1 (0.2/mL/mouse). When an average tumor volume was 158 mm^3, the mice were randomly grouped according to a tumor size. The treatment group was administered with a solution of a to-be-tested compound prepared with an appropriate solvent, and the solvent control group was administered with a blank solvent. During treatment, the tumor volume was measured twice a week, and the tumor weight was determined after a last dose to determine the activity of the compound. A tumor growth inhibition (TGI) rate (%) was calculated by comparing the tumor volumes and weights of the treatment group and the solvent control group. Body weight measurement, as the routine determination of toxicity, has the same frequency as tumor volume measurement.

[4] = system: human liver cancer cells Hep3B; assay: Cell proliferation assay (CellTiter-Glo); assay type: cell-based; settings: 96 hrs incubation, CTG, read-out: IC50 of the Compound on Hep3B Cells
Description: The effect of the compound of the present disclosure on the proliferation of human liver cancer cells Hep3B cells was evaluated by an in vitro cell assay. CELL TITER-GLO (CTG) luminescence was used as a detection method in the assay, which can detect the number of living cells by quantitatively determining ATP. Since ATP participates in a variety of enzymatic reactions in organisms, the ATP is an indicator of the metabolism of living cells and its content directly reflects the number of cells and the cell state of cells. In the assay, CellTiter-Glo™ reagent was added to a cell culture medium to measure a luminescence value, the luminescence value is directly proportional to the amount of ATP, and ATP is positively correlated to the number of living cells, so cell viability can be inspected by detecting the ATP content.
A bottle of Hep3B cells in a logarithmic growth phase was taken, the cells were counted after digestion and resuspension and then inoculated into a 96-well plate after the cell density was adjusted, each well inoculated with 180 μL (1500 cells/well), and the plate was incubated for 24 hrs in a 37° C., 5% CO2 incubator. • (2) Administration to cells […]
An inhibition rate was calculated according to the luminescence value. […]

[5] = Pharmacokinetic test of crystal forms in SD rats, oral; assay type: in vivo; settings: 50 mg/kg, suspension in 0.5% CMC-Na
Description: Drug preparation: A maleate crystal form 1, a phosphate crystal form 1 and an adipate crystal form 1 were weighed separately, and each crystal form was prepared in a 0.5% CMC-Na solution into a to-be-tested suspension, where the final concentration of each compound was 5 mg/mL.
Test animals: SD rats were randomly divided into three groups, each group including three male rats, and the three groups were called a maleate group, a phosphate group and an adipate group, separately.
Administration and sample collection: The SD rats in each group were subjected to oral administration at a dosage of 50 mg/kg. Blood collection time: Blood samples were collected in EDTA-K pre-anticoagulation tubes after 0 h (before administration), 0.25 h, 0.5 h, 1 h, 2 hrs, 4 hrs, 7 hrs and 24 hrs. The plasma in each sample was isolated by being centrifuged at 4000 rpm for 10 min at 4° C. Plasma samples were collected and stored at −80° C. for analytical use. The concentration of a to-be-tested compound in plasma samples was analyzed by AB4000 API LC/MS in combination with HPLC, and the pharmacokinetic parameter of the to-be-tested compound was obtained by analyzing the plasma concentration-time data of each animal.

[6] = 40° C./75% RH, packaged, day 5, listed as Crystal form A of the compound represented by Formula I
[7] = 40° C./75% RH, packaged, day 20
[8] = day 0, listed as Crystal form A of the compound represented by Formula I
[9] = 40° C./75% RH, packaged, day 12

In the case of C=CC(=O)N[C@H]1CCOC[C@H]1Nc1ncc2c(n1)-c1cc(C)cnc1N(c1c(Cl)c(OC)cc(OC)c1Cl)C2 [Amorphous form of the compound represented by Formula I], the “API Content” value ([1]; 25° C./75% RH, open, day 10) is reported as 97.21%, the “Changed Maximum Single Impurity” value ([1]; 25° C./75% RH, open, day 10) is reported as 1.26% and the “API Content” value ([1]; 40° C., open, day 10) is reported as 97.45%. The “Changed Maximum Single Impurity” value ([1]; 40° C., open, day 10) was 1.15%, the “stability (in words)” value [1] was “poor stability” and the “API Content” value ([1]; day 0) was 98.30%. For the same molecule, the “Changed Maximum Single Impurity” value ([1]; day 0) was 0.41%, the “Weight Gain for Vapor Absorption” value [2] was 6.53% and the “hygroscopicity (in words)” value [2] was “hygroscopic”.

In the case of C=CC(=O)N[C@H]1CCOC[C@H]1Nc1ncc2c(n1)-c1cc(C)cnc1N(c1c(Cl)c(OC)cc(OC)c1Cl)C2 [Compound represented by Formula I, N-((3S,4S)-3-((6-(2,6-dichloro-3,5-dimethoxyphenyl)-9-methyl-5,6-dihydropyrimido[5,4-c][1,8]naphthyridin-2-yl)amino)tetrahydro-2H-pyran-4-yl)acrylamide], the “inhibition rate on the tumor volume growth of Hep3B” value (“inhibition rate … of Hep3B” below) ([3]; 50 mg/kg BID×14) is reported as 73.02%, the “inhibition rate on the tumor weight growth of HepB” value (“inhibition rate … of HepB” below) ([3]; 50 mg/kg BID×14) is reported as 84.76% and the “inhibition rate … of Hep3B” value ([3]; 100 mg/kg BID×14) is reported as 86.26%. For the same molecule, the “inhibition rate … of HepB” value ([3]; 100 mg/kg BID×14) was 92.27%, the “inhibition rate … of Hep3B” value ([3]; 200 mg/kg BID×14) was 90.26% and the “inhibition rate … of HepB” value ([3]; 200 mg/kg BID×14) was 98.15%. For the same molecule, the “body weight loss (routine determination of toxicity)” value ([3]; during the entire assay, treatment doses 50-200 mg/kg BID×14) was “none of the animals administered with the compound represented by Formula I showed an obvious weight loss” and the IC50 [4] was 5.1 nM.

For C=CC(=O)N[C@H]1CCOC[C@H]1Nc1ncc2c(n1)-c1cc(C)cnc1N(c1c(Cl)c(OC)cc(OC)c1Cl)C2 [Crystal form A], the “API Content” value ([1]; 25° C./92.5% RH, open, day 20) was 99.32%, the “Changed Maximum Single Impurity” value ([1]; 25° C./92.5% RH, open, day 20) was 0.17% and the “API Content” value [1, 6] was 99.25%. For the same molecule, the “Changed Maximum Single Impurity” value [1, 6] was 0.19%, the “API Content” value [1, 7] was 99.47% and the “Changed Maximum Single Impurity” value [1, 7] was 0.17%. For the same molecule, the “API Content” value ([1]; 60° C., open, day 12) was 99.14%, the “Changed Maximum Single Impurity” value ([1]; 60° C., open, day 12) was 0.24% and the “stability (in words)” value [1] was “relatively good stability”. For the same molecule, the “API Content” value [1, 8] was 99.16%, the “Changed Maximum Single Impurity” value [1, 8] was 0.19% and the “Weight Gain for Vapor Absorption” value [2] was 0.03%. The “hygroscopicity (in words)” value [2] was “non-hygroscopic; also recorded: low hygroscopicity”.

With C=CC(=O)NC1CCOCC1Nc1ncc2c(n1)-c1cc(C)cnc1N(c1c(Cl)c(OC)cc(OC)c1Cl)C2.O=C(O)C(O)C(O)C(=O)O [L-tartrate crystal form 1] the “Weight Gain for Vapor Absorption” value [2] was 0.07% and the “hygroscopicity (in words)” value [2] was “non-hygroscopic”.

In the case of C=CC(=O)NC1CCOCC1Nc1ncc2c(n1)-c1cc(C)cnc1N(c1c(Cl)c(OC)cc(OC)c1Cl)C2.O=C(O)C=CC(=O)O (centres unmarked) [Maleate crystal form 1], the “API Content” value ([1]; 40° C./75% RH, packaged, day 5) is reported as 99.48%, the “Changed Maximum Single Impurity” value ([1]; 40° C./75% RH, packaged, day 5) is reported as 0.26% and the “API Content” value [1, 9] is reported as 99.34%. For the same molecule, the “Changed Maximum Single Impurity” value [1, 9] was 0.28%, the “stability (in words)” value [1] was “relatively good stability” and the “API Content” value ([1]; day 0) was 99.62%. The “Changed Maximum Single Impurity” value ([1]; day 0) was 0.2%, the “hygroscopicity (in words)” value [2] was “low hygroscopicity” and the AUClast [5] was 8355 ng·h/mL. It also gave a Cmax [5] of 2713 ng/mL.

For C=CC(=O)NC1CCOCC1Nc1ncc2c(n1)-c1cc(C)cnc1N(c1c(Cl)c(OC)cc(OC)c1Cl)C2.O=C(O)C=CC(=O)O (centres unmarked) [Maleate crystal form 2], the “API Content” value ([1]; 25° C./75% RH, open, day 10) was 98.61%, the “Changed Maximum Single Impurity” value ([1]; 25° C./75% RH, open, day 10) was 1.1% and the “API Content” value ([1]; 40° C., open, day 10) was 99.32%. The “Changed Maximum Single Impurity” value ([1]; 40° C., open, day 10) was 0.48%, the “stability (in words)” value [1] was “poor stability” and the “API Content” value ([1]; day 0) was 99.63%. The “Changed Maximum Single Impurity” value ([1]; day 0) was 0.29%, the “Weight Gain for Vapor Absorption” value [2] was 6.64% and the “hygroscopicity (in words)” value [2] was “hygroscopic”.

In the case of C=CC(=O)N[C@H]1CCOC[C@H]1Nc1ncc2c(n1)-c1cc(C)cnc1N(c1c(Cl)c(OC)cc(OC)c1Cl)C2 [Phosphate crystal form 1], the “API Content” value ([1]; 40° C./75% RH, packaged, day 5) is reported as 99.39%, the “Changed Maximum Single Impurity” value ([1]; 40° C./75% RH, packaged, day 5) is reported as 0.15% and the “API Content” value [1, 9] is reported as 99.56%. For the same molecule, the “Changed Maximum Single Impurity” value [1, 9] was 0.11%, the “stability (in words)” value [1] was “relatively good stability” and the “API Content” value ([1]; day 0) was 99.32%. For the same molecule, the “Changed Maximum Single Impurity” value ([1]; day 0) was 0.15%, the “Weight Gain for Vapor Absorption” value [2] was 0.19% and the “hygroscopicity (in words)” value [2] was “non-hygroscopic; also recorded: low hygroscopicity”. For the same molecule, the AUC(0-t) ([5]; male, rat, plasma) was 6890 ng·h/mL and the Cmax ([5]; male, rat, plasma, read-out: Cmax) was 1140 ng/mL.
